Experimental data: PubChem BioAssay (NCI)
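Growth conditions: 96-well plates. Treatment: test compound, 48 hours, 5 concentrations. Analysis: linear interpolation between bracketing concentrations; unreached endpoints set to highest concentration. At the TGI there is no net growth.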

Columns and labels:
Assay in all cases: inhibition of tumour cell growth, NCI panel, 48 h
786-0 renal = system: 786-0 renal
A498 renal = system: A498 renal
A549 NSCLC = system: A549 NSCLC
ACHN renal = system: ACHN renal
BT-549 breast = system: BT-549 breast
CAKI-1 renal = system: CAKI-1 renal
CCRF-CEM leukemia = system: CCRF-CEM leukemia
COLO 205 colon = system: COLO 205 colon
DU-145 prostate = system: DU-145 prostate
EKVX NSCLC = system: EKVX NSCLC
HCC-2998 colon = system: HCC-2998 colon
HCT-15 colon = system: HCT-15 colon
HL-60(TB) leukemia = system: HL-60(TB) leukemia
HOP-92 NSCLC = system: HOP-92 NSCLC
HS 578T breast = system: HS 578T breast
IGROV1 ovarian = system: IGROV1 ovarian
K-562 leukemia = system: K-562 leukemia
KM12 colon = system: KM12 colon
LOX IMVI melanoma = system: LOX IMVI melanoma
M14 melanoma = system: M14 melanoma
MALME-3M melanoma = system: MALME-3M melanoma
MCF7 breast = system: MCF7 breast
MDA-MB-231 breast = system: MDA-MB-231 breast
MDA-MB-435 = system: MDA-MB-435
MDA-N = system: MDA-N
MOLT-4 leukemia = system: MOLT-4 leukemia
NCI-H460 lung = system: NCI-H460 lung
NCI-H522 lung = system: NCI-H522 lung
NCI/ADR-RES ovarian = system: NCI/ADR-RES ovarian
OVCAR-3 ovarian = system: OVCAR-3 ovarian
OVCAR-4 ovarian = system: OVCAR-4 ovarian
OVCAR-5 ovarian = system: OVCAR-5 ovarian
OVCAR-8 ovarian = system: OVCAR-8 ovarian
PC-3 prostate = system: PC-3 prostate
RPMI-8226 leukemia = system: RPMI-8226 leukemia
RXF 393 renal = system: RXF 393 renal
SF-268 CNS = system: SF-268 CNS
SF-295 CNS = system: SF-295 CNS
SF-539 CNS = system: SF-539 CNS
SK-MEL-2 melanoma = system: SK-MEL-2 melanoma
SK-MEL-28 melanoma = system: SK-MEL-28 melanoma
SK-MEL-5 melanoma = system: SK-MEL-5 melanoma
SN12C renal = system: SN12C renal
SNB-19 CNS = system: SNB-19 CNS
SNB-75 CNS = system: SNB-75 CNS
SR leukemia = system: SR leukemia
SW-620 colon = system: SW-620 colon
T-47D breast = system: T-47D breast
TK-10 renal = system: TK-10 renal
U251 CNS = system: U251 CNS
UACC-257 melanoma = system: UACC-257 melanoma
UACC-62 melanoma = system: UACC-62 melanoma
UO-31 renal = system: UO-31 renal
HCT-116 colon = system: HCT-116 colon
HOP-62 NSCLC = system: HOP-62 NSCLC
HT29 colon = system: HT29 colon
NCI-H226 lung = system: NCI-H226 lung
NCI-H23 lung = system: NCI-H23 lung
SK-OV-3 ovarian = system: SK-OV-3 ovarian

Measured: TGI

CCCCCCCCCCCCCCCC(=O)OC(COC(C)=O)CO[P+](=O)O (stereo not given)
34 µM: HOP-92 NSCLC
42.7 µM: HCC-2998 colon
50.5 µM: MDA-MB-231 breast
80.8 µM: NCI/ADR-RES ovarian
36.5 µM: A549 NSCLC
62 µM: SR leukemia
53.3 µM: SF-539 CNS
35.4 µM: SF-295 CNS
94 µM: SNB-75 CNS
28.4 µM: M14 melanoma
36.2 µM: NCI-H522 lung
43.8 µM: HCT-15 colon
45.3 µM: U251 CNS
38.6 µM: OVCAR-5 ovarian
59.6 µM: IGROV1 ovarian
40.6 µM: SK-MEL-2 melanoma
48.4 µM: KM12 colon
38.9 µM: 786-0 renal
97.1 µM: UO-31 renal
92.8 µM: ACHN renal
63.9 µM: LOX IMVI melanoma
49.6 µM: SF-268 CNS
80.7 µM: MOLT-4 leukemia
44.4 µM: OVCAR-8 ovarian
36.6 µM: HS 578T breast
not listed: HCT-116 colon | HOP-62 NSCLC | HT29 colon | NCI-H226 lung | NCI-H23 lung | SK-OV-3 ovarian
> 100 µM: all other assays above

O=S(=O)(NC1OCCCC1I)c1ccccc1 (stereo not given)
not listed: HL-60(TB) leukemia | M14 melanoma
> 100 µM: all other assays above
